In one series the test system is beta amyloid production. Kind of series: Repressor Release Assay (RRA). The format is cell-based. The following applies: for APPI % of Example #98: relative to Example 98; for fold induction at 3 µg/mL: Conc 3 μg/ml. The protocol: CHO-K1 cells were cultured in whole DMEM media (DMEM—High Glucose with 10% fetal bovine serum, 1% Non-essential Amino Acids, and 1% Penicillin-Streptomycin) at 37° C. with 5% CO2. Two million cells were plated into 10-cm dishes 24 hrs prior to transfection.
Transient transfections were completed as recommended by Gibco BRL using their Lipofectamine Plus system. First, 6 μg of pRSVO-luc and 6 μg of APP-lacI construct DNA were added to 460 μL Opti-Mem transfection media and incubated with 30 μL Plus reagent for 15 minutes. Then, a lipid mixture of 40 μL Lipofectamine reagent and 460 μL Opti-Mem transfection media was incubated with the DNA-Plus reagent mixture for 15 minutes. During the DNA-lipid incubation, the CHO-K1 cells were washed once and covered in 5.0 mL DMEM media without Penicillin-Streptomycin. The DNA-lipid preparation was then layered onto these cells and incubated at 37° C. overnight.
[…] transfected cells per well (100 μL total volume) were plated into sterile, opaque Packard 96-well Culture-Plates in clear DMEM whole media (DMEM—without phenol red) and incubated at 37° C. with 5% CO2 for 3-5 hours.
Compounds were diluted using two different protocols; one protocol was used for compounds supplied neat (weighed powder in vial) and the other protocol was used for compounds supplied in solution (20 mM in DMSO in 96-well plates). For both protocols, 25 mM Hepes and 25 mM Hepes/1% DMSO were prepared fresh to be used as diluent. The Hepes/DMSO was used as the diluent control on all experimental plates.
The following table depicts the steps for compound dilution (please note that the last step was the addition of compound to cells/media in tissue culture plate).
Because some compounds were present in 96-well format at 20 mM, the following represents the protocol for their dilution (note that an average molecular weight of these compounds was used to calculate these dilutions and as above, the last step was the addition of compound to cells/media in tissue culture plate).
Once the compounds were diluted, they were applied in duplicate on cells in tissue culture plates (prepared above). Cells were incubated with compound at 37° C. with 5% CO2 for an additional 36-48 hours.
Luciferase assays (LucLite reagent, Packard) were performed and were read on a Packard TopCount instrument. Media was removed from each 96-well plate and replaced with 100 μL PBS per well (with Mg^2+ and Ca^2+). An equal volume (100 μL) of the LucLite lysis/substrate buffer was added to each well and the plates were sealed and mixed in the dark on a rotary shaker for 15-30 minutes at room temperature. Luciferase readings were then taken on the TopCount instrument. Measurements were expressed as relative light units (RLU) and are calculated and analyzed in MS Excel as follows: […]

The test system of the next series is CHO-K1 cells. Briefly: Toxicity in RRA (loss of luciferase signal). The following applies: toxicity = loss of signal (<0.75 fold increase).
Setting [1] is: Conc 10 μg/ml, luciferase activity over diluent control, read-out: APPI Fold Increase.
Setting [2] is: Conc 20 μg/ml, luciferase activity over diluent control, read-out: APPI Fold Increase.
Setting [3] is: Conc 10 μg/ml, luciferase activity over diluent control.
The mark [4] stands for this setting: luciferase activity over diluent control, read-out: APPI Fold Increase.
Setting [5] is: Conc 20 μg/ml, luciferase activity (RLU) over diluent control, read-out: APPI Fold Increase.
Setting [6] is: Conc 20 μg/ml, 1=non-toxic, 0=toxic.

Read-outs that look alike come from different tables or passages of the source.

Description for CHO-K1 cells: The beta amyloid inhibitory activity of the compounds of the present invention was determined using the Repressor Release Assay (RRA).
“Fold Increase” refers to the amount of luciferase activity (measured in relative light units) over diluent control. “SEM” refers to the standard error of the mean for fold increase.

As for `C=C(C)C(O)[C@@H](NS(=O)(=O)c1ccc(Br)cc1)[C@@H](C)CC` (stereo partly drawn) [Example 157, 4-bromo-N-{(1S)-2-hydroxy-3-methyl-1-[(1S)-1-methylpropyl]-3-butenyl}benzenesulfonamide], the fold induction at 10 µg/mL in the series with beta amyloid production (setting [1]) came to 1.96. Moreover, in the series with CHO-K1 cells (Conc 10 μg/ml), the “(%)APPI Toxicity” value is given as 1 (1=non-toxic).

As for `CC(C)[C@@H](CO)NS(=O)(=O)c1ccccc1F` [Example 119, 2-fluoro-N-[(1S)-1-(hydroxymethyl)-2-methylpropyl]benzenesulfonamide], in the series on beta amyloid production (setting [2]), the fold induction at 20 µg/mL was determined as 1.5. Also, the “(%)APPI Toxicity” value in the series on CHO-K1 cells (Conc 20 μg/ml) was 1 (1=non-toxic).

For `CC[C@H](C)[C@H](NS(=O)(=O)c1ccc(Br)cc1)C(O)(c1cccc2ccccc12)c1cccc2ccccc12` [Example 222, 4-bromo-N-((1S,2S)-1-{hydroxy[di(1-naphthyl)]methyl}-2-methylbutyl) benzenesulfonamide], the “APPI Fold Increase” value with beta amyloid production (setting [3]) is recorded as 1.59 fold. Further, in the series with beta amyloid production (Conc 10 μg/ml), the “APPI % of Example #98” value was 54.46%. Further, the “(%)APPI Toxicity” value in the series on CHO-K1 cells (Conc 10 μg/ml) is given as 1 (1=non-toxic).

Take `O=S(=O)(N[C@H](CO)C1CCCCC1)c1ccc(Br)cc1` [Example 16, 4-Bromo-N-[(1S)-1-cyclohexyl-2-hydroxyethyl]benzenesulfonamide]: the fold induction at 20 µg/mL in the series on beta amyloid production (setting [2]) came out at 2.7. For the same compound, the “(%)APPI Toxicity” value with CHO-K1 cells (Conc 20 μg/ml) was 1 (1=non-toxic).

Consider `CC[C@H](C)[C@@H](CO)N(CC1CCC1)S(=O)(=O)c1ccc(Cl)cc1` [Example 44, 4-chloro-N-(cyclobutylmethyl)-N-[(1S,2S)-1-(hydroxymethyl)-2-methylbutyl] benzenesulfonamide], for which the “APPI Fold Increase” value in the series on beta amyloid production (Conc 20 μg/ml, luciferase activity over diluent control) came out at 2.6 fold. Also, the “APPI % of Example #98” value in the series on beta amyloid production (Conc 20 μg/ml) is 95.7%. In addition, in the series with CHO-K1 cells (Conc 20 μg/ml), the “(%)APPI Toxicity” value is 1 (1=non-toxic).

On to `CC[C@H](C)[C@H](NS(=O)(=O)c1cccc(Cl)c1)C(C)O` (stereo partly drawn) [Example 185, 3-chloro-N-[(1S,2S)-1-(1-hydroxyethyl)-2-methylbutyl]benzenesulfonamide], for which the fold induction at 10 µg/mL in the series with beta amyloid production (setting [1]) came out at 1.51. Also, the “(%)APPI Toxicity” value in the series on CHO-K1 cells (Conc 10 μg/ml) is recorded as 1 (1=non-toxic).

As for `CC(C)C[C@@H](CO)NS(=O)(=O)c1ccc(Cl)cc1` [Example 92, 4-chloro-N-[(1S)-1-(hydroxymethyl)-3-methylbutyl]benzenesulfonamide], the fold induction at 20 µg/mL in the series on beta amyloid production (setting [2]) was 1.7. Besides, in the series on CHO-K1 cells (Conc 20 μg/ml), the “(%)APPI Toxicity” value is 1 (1=non-toxic).

With `CC[C@@H](C)[C@@H](CO)NS(=O)(=O)c1ccc(Br)cc1` [Example 36, 4-bromo-N-[(1S,2R)-1-(hydroxymethyl)-2-methylbutyl]benzenesulfonamide], the fold induction at 1 µg/mL in the series on beta amyloid production (Conc 1 μg/ml, luciferase activity over diluent control, read-out: APPI Fold Increase) was determined as 1.6. For the same compound, in the series on beta amyloid production (setting [4]), the fold induction at 3 µg/mL is 2.05. Also, the fold induction at 10 µg/mL in the series with beta amyloid production (setting [1]) came out at 3.33. Also, the fold induction at 20 µg/mL in the series on beta amyloid production (setting [2]) was found to be 6.4. Moreover, the “(%)APPI Toxicity” value with CHO-K1 cells (Conc 1 μg/ml), in the series with CHO-K1 cells (Conc 3 μg/ml), in the series on CHO-K1 cells (Conc 10 μg/ml) and with CHO-K1 cells (Conc 20 μg/ml) was 1 (1=non-toxic) each time.

On to `C/C=C(\C)C(O)(/C(C)=C/C)[C@@H](NS(=O)(=O)c1ccccc1F)[C@@H](C)CC` (stereo partly drawn) [Example 270, 2-fluoro-N-{(1S,3E)-2-hydroxy-3-methyl-2-[(1E)-1-methyl-1-propenyl]-1-[(1S)-1-methylpropyl]-3-pentenyl}benzenesulfonamide], for which the fold induction at 10 µg/mL with beta amyloid production (setting [1]) amounted to 1.86. Moreover, in the series with CHO-K1 cells (Conc 10 μg/ml), the “(%)APPI Toxicity” value is 1 (1=non-toxic).

As for `CC[C@H](C)[C@H](NS(=O)(=O)c1ccc(Cl)cc1)C(O)c1ccc(SC)cc1` (stereo partly drawn) [Example 182, 4-chloro-N-((1S,2S)-1-{hydroxy[4-(methylsulfanyl)phenyl]methyl}-2-methylbutyl) benzenesulfonamide], the “APPI Fold Increase” value in the series on beta amyloid production (setting [3]) is on record as 2.58 fold. Further, the “APPI % of Example #98” value with beta amyloid production (Conc 10 μg/ml) turned out to be 122.24%. Moreover, the “(%)APPI Toxicity” value in the series on CHO-K1 cells (Conc 10 μg/ml) was 1 (1=non-toxic).

Regarding `CCCCC[C@H](C)[C@@H](CO)NS(=O)(=O)c1ccc(Br)cc1` [Example 80, 4-bromo-N-[(1S,2S)-1-(hydroxymethyl)-2-methylheptyl]benzenesulfonamide], the fold induction at 20 µg/mL in the series on beta amyloid production (setting [5]) was 3.9. In the series with CHO-K1 cells (setting [6]), the “(%)APPI Toxicity” value is listed as 1 (1=non-toxic).

Regarding `CCCCCCC(O)(CCCCCC)[C@@H](NS(=O)(=O)c1cccc(Cl)c1)[C@@H](C)CC` [Example 249, 3-chloro-N-{(1S)-2-hexyl-2-hydroxy-1-[(1S)-1-methylpropyl]octyl}benzenesulfonamide], the fold induction at 10 µg/mL in the series on beta amyloid production (setting [1]) came to 1.9. Also, in the series with CHO-K1 cells (Conc 10 μg/ml), the “(%)APPI Toxicity” value is listed as 1 (1=non-toxic).

`CC(C)C[C@@H](c1ccccc1)[C@@H](CO)NS(=O)(=O)c1ccc(Cl)cc1` [Example 64, 4-chloro-N-[(1S,2S)-1-(hydroxymethyl)-4-methyl-2-phenylpentyl]benzenesulfonamide]: in the series on beta amyloid production (setting [5]), the fold induction at 20 µg/mL was 1.7. Also, the “(%)APPI Toxicity” value in the series on CHO-K1 cells (setting [6]) is 1 (1=non-toxic).

Turning to `CC[C@H](C)[C@H](NS(=O)(=O)c1ccc(Br)cc1)C(C)O` (stereo partly drawn) [Example 145, 4-bromo-N-[(1S,2S)-1-(1-hydroxyethyl)-2-methylbutyl]benzenesulfonamide], in the series on beta amyloid production (setting [1]), the fold induction at 10 µg/mL turned out to be 3.9. Also, the “(%)APPI Toxicity” value with CHO-K1 cells (Conc 10 μg/ml) was 1 (1=non-toxic).

Turning to `CC[C@@H](c1ccco1)[C@@H](CO)NS(=O)(=O)c1ccc(Cl)cc1` [Example 66, 4-chloro -N-[(1S,2R)-2-(2-furyl)-1-(hydroxymethyl)butyl]benzenesulfonamide], the fold induction at 20 µg/mL with beta amyloid production (setting [5]) amounted to 5.5. In the series on CHO-K1 cells (setting [6]), the “(%)APPI Toxicity” value is given as 1 (1=non-toxic).

`CSc1ccc([C@H](O)[C@H](CO)NS(=O)(=O)c2ccccc2F)cc1` [Example 116, 2-fluoro-N-{(1S,2S)-2-hydroxy-1-(hydroxymethyl)-2-[4-(methylthio)phenyl]ethyl}benzenesulfonamide]: in the series with beta amyloid production (setting [2]), the fold induction at 20 µg/mL was found to be 1.6. Further, the “(%)APPI Toxicity” value in the series on CHO-K1 cells (Conc 20 μg/ml) is 1 (1=non-toxic).

Take `C=CCC(O)[C@@H](NS(=O)(=O)c1ccc(Br)cc1)[C@@H](C)CC` (stereo partly drawn) [Example 152, 4-bromo-N-{(1S)-2-hydroxy-1-[(1S)-1-methylpropyl]-4-pentenyl}benzenesulfonamide]: in the series on beta amyloid production (setting [4]), the fold induction at 3 µg/mL was 1.6. In addition, the fold induction at 10 µg/mL in the series with beta amyloid production (setting [1]) turned out to be 6.64. Besides, the “(%)APPI Toxicity” value in the series with CHO-K1 cells (Conc 3 μg/ml) and in the series on CHO-K1 cells (Conc 10 μg/ml) was 1 (1=non-toxic) each time.

For the compound `C/C=C(\C)C(O)[C@@H](NS(=O)(=O)c1ccc(Br)cc1)[C@@H](C)CC` (stereo partly drawn) [Example 159, 4-bromo-N-{(1S,3E)-2-hydroxy-3-methyl-1-[(1S)-1-methylpropyl]-3-pentenyl}benzenesulfonamide], the fold induction at 10 µg/mL in the series with beta amyloid production (setting [1]) worked out at 2.11. For the same compound, the “(%)APPI Toxicity” value in the series with CHO-K1 cells (Conc 10 μg/ml) is reported as 1 (1=non-toxic).

Regarding `O=S(=O)(N[C@H](CO)c1ccccc1)c1ccccc1F` [Example 112, 2-fluoro-N-[(1S)-2-hydroxy-1-phenylethyl]benzene sulfonamide], the fold induction at 20 µg/mL with beta amyloid production (setting [2]) is 1.8. Moreover, the “(%)APPI Toxicity” value in the series on CHO-K1 cells (Conc 20 μg/ml) is reported as 1 (1=non-toxic).

Take `CC[C@H](c1ccc(OC)cc1)[C@@H](CO)NS(=O)(=O)c1ccc(Br)cc1` [Example 74, 4-bromo-N-[(1S,2R)-1-(hydroxymethyl)-2-(4-methoxyphenyl)butyl]benzenesulfonamide]: the fold induction at 20 µg/mL in the series with beta amyloid production (setting [5]) was 2.5. In addition, the “(%)APPI Toxicity” value in the series with CHO-K1 cells (setting [6]) is given as 1 (1=non-toxic).

For the compound `CC[C@H](C)[C@@H](CO)NS(=O)(=O)c1cc(Br)ccc1Br` [Example 21, 2,5-dibromo-N-[(1S,2S)-1-(hydroxymethyl)-2-methylbutyl]benzenesulfonamide], the fold induction at 20 µg/mL with beta amyloid production (setting [2]) is 1.6. Further, the “(%)APPI Toxicity” value with CHO-K1 cells (Conc 20 μg/ml) is recorded as 1 (1=non-toxic).

For the compound `O=S(=O)(N[C@H](CO)Cc1ccc(OCc2ccccc2)cc1)c1ccc(Cl)cc1` [Example 96, N-{(1S)-1-[4-(benzyloxy)benzyl]-2-hydroxyethyl}-4-chlorobenzenesulfonamide], the fold induction at 20 µg/mL with beta amyloid production (setting [2]) stood at 1.5. The “(%)APPI Toxicity” value in the series with CHO-K1 cells (Conc 20 μg/ml) is recorded as 1 (1=non-toxic).

These data come from patent US7166622B2, “Substituted phenylsulfonamide inhibitors of beta amyloid production” (Wyeth, priority 2002, dated 2007).
